# Assay results taken from US20170008888A1 (KYORIN PHARMACEUTICAL CO., LTD., priority 2014, published 2017).
# Read-outs that look alike come from different tables or passages of the source. Marks after values point to notes of the source that are not given here.
# Experiments:
# [1] = test system: diseased primary human synovial fibroblasts; experiment: Cytokine response by primary human synovial fibroblasts stimulated with IL-17A, TNF-α or both; format: cell-based; settings: Fibroblast, 48 h
# Method: Primary synovial fibroblasts isolated from the knee of a patient diagnosed with rheumatoid arthritis/osteoarthritis were obtained from Asterand (Detroit, Mich.) and maintained in FGM-2 fibroblast growth medium (Lonza, Allendale, N.J.). Cells were seeded at approximately 1.6e4 cells/ml and incubated at 37° C. in a humidified atmosphere at 5% CO2 until the cells reached ˜90% confluence. Cells were pre-treated with the test compounds (10 μM down by ⅕ in a 4-point serial dilution series) for 1 h at 37° C. in a humidified atmosphere at 5% CO2. DMSO at a final concentration of 0.1% served as the non-inhibited control. […] Cells were stimulated with 10 ng/ml human recombinant IL-17A (eBioscience, San Diego, Calif.), 10 ng/ml TNF-α, (Cell Signaling Technology, Danvers, Mass.) or both, for 48 h. Supernatant was then collected and analyzed for cytokine concentrations using the Bio-Plex Pro Human Cytokine 17-Plex Panel supplemented with RANTES and VEGF Singleplex analytes (Bio-Rad Laboratories, Hercules, Calif.) according to the manufacturer's instructions. Magnetic beads were measured on the Bio-Plex MAGPIX multiplex reader instrument using the accompanying xPONENT 4.2 acquisition software (Bio-Rad Laboratories). Data were analyzed via the Bio-Plex Manager software v6.1 (Bio-Rad Laboratories).
# [2] = test system: Imiquimod-induced psoriasis mouse model; experiment: Imiquimod (IMQ)-induced acute model of psoriasis in mouse: skin thickness, erythema, scaling; format: in vivo, mouse (Balb/c)
# Method: Material and methods for the IMQ study were adapted from van der Fits et al. J Immunol., 2009, 182: 5836-5845. Eight week old male Balb/c mice (Harlan) received a daily topical dose of 62.5 mg 5% IMQ cream (Aldara™, Medicis) equivalent to 3.125 mg IMQ, on the shaved back (approximately 2×3.5 cm patch) and dorsal surface of the right ear for 6 consecutive days. Sham control mice were treated similarly with control cream (Hydrous Emulsified Base, HEB, Cream, Fagron). Treatments were administered by group as indicated in Table 1 below prior to daily application of IMQ (QD and morning dose of BID regimens), n=10 for all groups. […] Body weights and scoring of induced clinical disease were performed after dosing (Days 1-7) but prior to IMQ application (Days 1-6) on Days 1 (baseline), 3, 4, 6, 8. Mice were sacrificed on Day 8 and treated back skin tissue collected and divided for fixation for histopathology (a 12 mm punch in mid-back) the remainder flash frozen; right (IMQ) and left (control) ears, spleen (after wet weight) and lung were also individually collected and flash frozen, and stored at −70° C. for subsequent biochemical analyses. Statistics were performed using one-way ANOVA with Dunnett's post-hoc test comparing treated groups to the vehicle group, using InStat software (GraphPad, La Jolla, Calif.).
# The severity of clinical disease was assessed by
# 1) skin thickness dial gauge micrometer measurements (duplicate) of the ears and the dorsal skin at the midline of the back (equal to double true measure of dorsal skin thickness)
# 2) erythema and scaling, independently scored on a scale from 0-4: 0=none, 1=slight, 2=moderate, 3=marked, 4=very marked with intermediate increments of 0.5 allowed.
# Clinical disease assessments included erythema, scaling, skin thickness and cumulative disease severity scores and the change in skin thickness of the ears and dorsal back skin over time compared to baseline measurements (Tables 19 and 20). Body weights of the mice were measured at baseline and at end of study, and there were no significant changes in weight in any treatment group during the study (data not shown).
# [3] = +Both IL-17A + TNF-α, read-out: EC50 (μM), G-CSF
# [4] = +Both IL-17A + TNF-α, read-out: EC50 (μM), IL-6
# [5] = +Both IL-17A + TNF-α, read-out: EC50 (μM), IL-8
# [6] = +Both IL-17A + TNF-α, read-out: EC50 (μM), RANTES
# [7] = +IL-17A 10 ng/ml, read-out: EC50 (μM), G-CSF
# [8] = +IL-17A 10 ng/ml, read-out: EC50 (μM), IL-6
# [9] = +IL-17A 10 ng/ml, read-out: EC50 (μM), IL-8
# [10] = +IL-17A 10 ng/ml, read-out: EC50 (μM), RANTES
# [11] = +TNF-α 10 ng/ml, read-out: EC50 (μM), G-CSF
# [12] = +TNF-α 10 ng/ml, read-out: EC50 (μM), IL-6
# [13] = +TNF-α 10 ng/ml, read-out: EC50 (μM), IL-8
# [14] = +TNF-α 10 ng/ml, read-out: EC50 (μM), RANTES
smiles,measurement,setting,value
CCOc1cc(C(=O)N2CC[C@@H](N(C)C)C2)ccc1Nc1cc2c(cn1)N(C)C(=O)c1ccccc1N2C [Compound 115],EC50,[1]; [3],> 10 µM
same,EC50,[1]; [4],> 10 µM
same,EC50,[1]; [5],> 10 µM
same,EC50,[1]; [6],1.88 µM
same,EC50,[1]; [7],2.67 µM
same,EC50,[1]; [8],1.04 µM
same,EC50,[1]; [9],0.39 µM
same,EC50,[1]; [10],> 10 µM
same,EC50,[1]; [11],1.25 µM
same,EC50,[1]; [12],1.71 µM
same,EC50,[1]; [13],> 10 µM
same,EC50,[1]; [14],> 10 µM
CCOc1cc(C(=O)N2CCCN(C)CC2)ccc1Nc1cc2c(cn1)N(C)C(=O)c1ccccc1N2C [Compound 8],"Clinical Score Erythema (0-4), AVG Score","[2]; Day 1 (baseline), 60 mpk BID",0
same,"Clinical Score Scaling (0-4), AVG Score","[2]; Day 1 (baseline), 60 mpk BID",0
same,"% Mean DORSAL BACK THICKNESS versus day 1, AVG","[2]; Day 3, 60 mpk BID",33.49%
same,"% Mean LEFT EAR THICKNESS [Control] versus day 1, AVG","[2]; Day 3, 60 mpk BID",−5.16%
same,"% Mean RIGHT EAR THICKNESS [IMQ] versus day 1, AVG","[2]; Day 3, 60 mpk BID",0.09%
same,"Clinical Score Erythema (0-4), AVG Score","[2]; Day 3, 60 mpk BID",1.25
same,"Clinical Score Scaling (0-4), AVG Score","[2]; Day 3, 60 mpk BID",0.5
same,"% Mean DORSAL BACK THICKNESS versus day 1, AVG","[2]; Day 4, 60 mpk BID",43.51%
same,"% Mean LEFT EAR THICKNESS [Control] versus day 1, AVG","[2]; Day 4, 60 mpk BID",−6.51%
same,"% Mean RIGHT EAR THICKNESS [IMQ] versus day 1, AVG","[2]; Day 4, 60 mpk BID",5.74%
same,"Clinical Score Erythema (0-4), AVG Score","[2]; Day 4, 60 mpk BID",1.4
same,"Clinical Score Scaling (0-4), AVG Score","[2]; Day 4, 60 mpk BID",0.6
same,"% Mean DORSAL BACK THICKNESS versus day 1, AVG","[2]; Day 6, 60 mpk BID",74.47** %
same,"% Mean LEFT EAR THICKNESS [Control] versus day 1, AVG","[2]; Day 6, 60 mpk BID",1.15%
same,"% Mean RIGHT EAR THICKNESS [IMQ] versus day 1, AVG","[2]; Day 6, 60 mpk BID",36.67* %
same,"Clinical Score Erythema (0-4), AVG Score","[2]; Day 6, 60 mpk BID",2.15
same,"Clinical Score Scaling (0-4), AVG Score","[2]; Day 6, 60 mpk BID",2.8
same,"% Mean DORSAL BACK THICKNESS versus day 1, AVG","[2]; Day 8, 60 mpk BID",32.42^NS %
same,"% Mean LEFT EAR THICKNESS [Control] versus day 1, AVG","[2]; Day 8, 60 mpk BID",−2.25%
same,"% Mean RIGHT EAR THICKNESS [IMQ] versus day 1, AVG","[2]; Day 8, 60 mpk BID",33.58** %
same,"Clinical Score Erythema (0-4), AVG Score","[2]; Day 8, 60 mpk BID",1.95
same,"Clinical Score Scaling (0-4), AVG Score","[2]; Day 8, 60 mpk BID",1.7
CCOc1cc(C(=O)N2CCC(N3CCN(C)CC3)CC2)ccc1Nc1cc2c(cn1)N(C)C(=O)c1ccccc1N2C [Compound 61],EC50,[1]; [3],> 10 µM
same,EC50,[1]; [4],> 10 µM
same,EC50,[1]; [5],> 10 µM
same,EC50,[1]; [6],1.35 µM
same,EC50,[1]; [7],2.59 µM
same,EC50,[1]; [8],1.67 µM
same,EC50,[1]; [9],0.87 µM
same,EC50,[1]; [10],> 10 µM
same,EC50,[1]; [11],1.27 µM
same,EC50,[1]; [12],1.05 µM
same,EC50,[1]; [13],4.51 µM
same,EC50,[1]; [14],2.78 µM
